# Patent US10555950B2, “Bile acid recycling inhibitors for treatment of obesity and diabetes” (Satiogen Pharmaceuticals, Inc., priority 2008, dated 2020)
# Entries after “also recorded” stand apart in the source; their conditions may differ.
# Experiments:
# [1] = test system: male db/db mice; test: In vivo assay for reduction in blood glucose levels (Example 6, Compound 100A with or without sitagliptin); details: for reduction in plasma glucose from baseline: after 6 hours
# Description: FIG. 1 illustrates the change in plasma glucose level in diabetic db/db mice after oral administration of a combination of the ASBTI (−)-(3R,5R)-trans-3-butyl-3-ethyl-2,3,4,5-tetrahydro-7,8-dimethoxy-5-phenyl-1,4-benzothiazepine1,1-dioxide at doses of 0, 0.1, 1, 10 mg/kg and 30 mg/kg sitagliptin (DPP-IV inhibitor) and the ASBTI alone.
# FIG. 9 illustrates the change in body weight 24 h after administration of the ASBTI (−)-(3R,5R)-trans-3-butyl-3-ethyl-2,3,4,5-tetrahydro-7,8-dimethoxy-5-phenyl-1,4-benzothiazepine1,1-dioxide (100A) at doses of 0, 0.1, 1, 10 mg/kg in combination with 30 mg/kg sitagliptin (DPP-IV inhibitor) and the ASBTI alone.
# Male db/db mice 6-7 weeks (approx 30 g) were fasted for 2 h. A combination of (−)-(3R,5R)-trans-3-butyl-3-ethyl-2,3,4,5-tetrahydro-7,8-dimethoxy-5-phenyl-1,4-benzothiazepine 1,1-dioxide (Compound 100A) at doses of 0, 0.1, 1, 10, mg/kg in 10% of DMSO-water and 30 mg/kg sitagliptin (DPP-IV inhibitor) in a mixture of valine-pyrrolidine in water was administered orally to male db/db mice (n=7-10 per group). Blood sample (˜1 μl from tail for glucose level testing) was taken at t=−24 h, 0, 60, 180, 240, 300, 360 min and 24 h after administration.
# [2] = test system: plasma GLP-1 level; test: Plasma GLP-1 levels in normal rats after oral ASBTI or metformin with DPP-IV inhibitor (Example 8); assay type: in vivo; details: for plasma GLP-1 level, ASBTI in combination with sitagliptin: oral 3, 30, 100 mg/kg + 30 mg/kg sitagliptin; for plasma GLP-1 level, ASBTI in combination with sitagliptin / plasma GLP-1 level, ASBTI alone: 0-5 h; for plasma GLP-1 level, ASBTI alone: oral 3, 30, 100 mg/kg
# Description: 12-week-old male HSD rats were fasted for 16 h and given oral dose of 0, 3, 30, 100 mg/kg of the ASBTI 1-[4-[4-[(4R,5R)-3,3-dibutyl-7-(dimethylamino)-2,3,4,5-tetrahydro-4-hydroxy-1,1-dioxido-1-benzothiepin-5-yl]phenoxy]butyl]4-aza-1-azoniabicyclo[2.2.2]octane methane sulfonate (Synthesized by Nanosyn Inc., CA, USA) or metformin (Control, 0, 3, 30, 100, 300 mg/kg) in saline and a dose of 30 mg/kg sitaglipin in a mixture of valine-pyrrolidine in water (n=5 per group). Blood samples in volume of 0.6 ml for each time point were taken from the caudal vein with a heparinized capillary tube 0, 1, 3 and 5 h after the administration of compounds and plasma GLP-1 level were determined. Aprotinin and 10 μl of DPP-IV inhibitor per ml of blood were used for blood sample preservation during 10 min centrifugation and for storage at −70° C. or below. GLP-1 (Active pM) was tested by Millipore ELISA Kits (Millipore Corporation, 290 Concord Road, Billerica, Mass.).
# [3] = test system: diabetic db/db mice; test: Plasma glucose in diabetic db/db mice after oral metformin plus sitagliptin (FIG. 3); assay type: in vivo; details: combination of metformin and sitagliptin
# Description: FIG. 3 illustrates the change in plasma glucose level in diabetic db/db mice after oral administration of a combination of metformin at doses of 0, 3, 30, 100, 300 mg/kg and 30 mg/kg sitagliptin (DPP-IV inhibitor).
# [4] = test system: male db/db mice; test: In vivo assay for reduction in blood glucose levels (Example 7, Compound 100B with or without sitagliptin); details: for reduction in plasma glucose from baseline: after 6 hours, oral
# Description: Male db/db mice 8-9 weeks (approx 40 g) were fasted for 2 h. A combination of 1-[4-[4-[(4R,5R)-3,3-dibutyl-7-(dimethylamino)-2,3,4,5-tetrahydro-4-hydroxy-1,1-dioxido-1-benzothiepin-5-yl]phenoxy]butyl]4-aza-1-azoniabicyclo[2.2.2]octane methane sulfonate (Compound 100B) at doses of 0, 3, 30, 100 mg/kg in saline-water and 30 mg/kg sitagliptin (DPP-IV inhibitor) in a mixture of valine-pyrrolidine in water was administered orally to male db/db mice (n=6-11 per group). Blood sample (˜1 μl from tail for glucose level testing) was taken at t=−24 h, 0, 1, 3, 4, 5, 6 h and 24 h after administration.
# [5] = test system: diabetic db/db mice; test: Oral Compound 100A/100B plus sitagliptin versus subcutaneous exenatide, blood glucose at 3 hours (Example 9); assay type: in vivo; details: FIG. 10
# [6] = FIG. 6, 7, listed as 1-[4-[4-[(4R,5R)-3,3-dibutyl-7-(dimethylamino)-2,3,4,5-tetrahydro-4-hydroxy-1,1-
structure (smiles),measurement,setting,value
CCCC[C@]1(CC)CS(=O)(=O)c2cc(OC)c(OC)cc2[C@@H](c2ccccc2)N1,change in body weight,"[1]; 24 h after administration, 0.1-10 mg/kg with 30 mg/kg sitagliptin and ASBTI alone, FIG. 9",Weight loss
same,"plasma glucose concentrations, ASBTI alone","[1]; ASBTI alone, oral, FIG. 1",lowers plasma glucose concentrations
same,reduction in plasma glucose from baseline,"[1]; 01 mg/kg (so in the source) + 30 mg/kg sitagliptin, oral",5.6%
same,reduction in plasma glucose from baseline,"[1]; 1 mg/kg + 30 mg/kg sitagliptin, oral",15%
same,reduction in plasma glucose from baseline,"[1]; 10 mg/kg + 30 mg/kg sitagliptin, oral",42.3%
same,reduction of the elevated blood glucose levels,"[1]; single oral administration, 0.1-10 mg/kg in combination with 30 mg/kg sitagliptin, compared to sitagliptin alone or vehicle, FIG. 1",dose-dependent reduction of the elevated blood glucose levels
"CN(C)C(=N)N=C(N)N [metformin, reference compound]","plasma GLP-1 level, metformin in combination with sitagliptin","[2]; oral metformin 30, 100, 300 mg/kg + 30 mg/kg sitagliptin, FIG. 5",dose-dependent increase in plasma GLP-1 level; also recorded: elevation in GLP-1 levels in plasma
same,duration of reduced plasma glucose concentrations,[3],about 6 hours
"CCCCC1(CCCC)CS(=O)(=O)c2ccc(N(C)C)cc2[C@@H](c2ccc(OCCCC[N+]34CCN(CC3)CC4)cc2)[C@H]1O.CS(=O)(=O)[O-] [Compound 100B, 1-[4-[4-[(4R,5R)-3,3-dibutyl-7-(dimethylamino)-2,3,4,5-tetrahydro-4-hydroxy-1,1-dioxido-1-benzothiepin-5-yl]phenoxy]butyl]4-aza-1-azoniabicyclo[2.2.2]octane methane sulfonate salt]","plasma GLP-1 level, ASBTI in combination with sitagliptin","[2]; FIG. 6, 7",dose-dependent increase in plasma GLP-1 level
same,"plasma GLP-1 level, ASBTI in combination with sitagliptin",[2]; [6],dose-dependent increase in plasma GLP-1 level; also recorded: elevation in GLP-1 levels in a dose-dependent manner
same,"plasma GLP-1 level, ASBTI alone","[2]; FIG. 6, 7",dose-dependent increase in plasma GLP-1 level
same,"plasma GLP-1 level, ASBTI alone",[2]; [6],dose-dependent increase in plasma GLP-1 level; also recorded: elevation in GLP-1 levels in a dose-dependent manner
same,change in body weight,"[4]; 24 h after administration, 3-100 mg/kg with 30 mg/kg sitagliptin, FIG. 8",Weight loss
same,"plasma glucose levels, ASBTI alone","[4]; ASBTI alone, 3, 30, 100 mg/kg oral, FIG. 4",lowers plasma glucose levels in dose dependent manner
same,reduction in plasma glucose from baseline,[4]; 3 mg/kg + 30 mg/kg sitagliptin,5.6%
same,reduction in plasma glucose from baseline,[4]; 30 mg/kg + 30 mg/kg sitagliptin,15%
same,reduction in plasma glucose from baseline,[4]; 100 mg/kg + 30 mg/kg sitagliptin,42.3%
same,reduction of the elevated blood glucose levels,"[4]; single oral administration, 3-100 mg/kg in combination with 30 mg/kg sitagliptin, compared to sitagliptin alone or vehicle, FIG. 2",dose-dependent reduction of the elevated blood glucose levels
same,blood glucose lowering compared with exenatide,"[5]; 3 hours after dosing, oral + 30 mg/kg sitagliptin versus single subcutaneous 0.02 mg/kg exenatide",reduces blood glucose levels more than a single subcutaneous injection of 0.02 mg/kg exenatide
"N[C@@H](CC(=O)N1CCn2c(nnc2C(F)(F)F)C1)Cc1cc(F)c(F)cc1F [sitagliptin, (3R)-3-amino-1-[9-(trifluoromethyl)-1,4,7,8-tetrazabicyclo[4.3.0]nona-6,8-dien-4-yl]-4-(2,4,5-trifluorophenyl)butan-1-one, reference compound]",reduction in plasma glucose from baseline,[4]; 0 mg/kg ASBTI + 30 mg/kg sitagliptin,5.5%
same,reduction in plasma glucose from baseline,"[1]; 0 mg/kg ASBTI + 30 mg/kg sitagliptin, oral",5.5%
"CCCC[C@]1(CC)CS(=O)(=O)c2cc(OC)c(OC)cc2[C@@H](c2ccccc2)N1 (relative stereo) [Compound 100A, (−)-(3R,5R)-trans-3-butyl-3-ethyl-2,3,4,5-tetrahydro-7,8-dimethoxy-5-phenyl-1,4-benzothiazepine1,1-dioxide]",reduction of plasma glucose levels,"[5]; 3 hours post-dose, oral 10 mg/kg + 30 mg/kg sitagliptin",35%
